# Patent US7396837B2, “Antitumoral analogs of lamellarins” (Pharma Mar, S.A.U., priority 2002, dated 2008)
# Key:
# Assay type in all cases: cell-based
# K-562 = assay: SRB colorimetric cell growth inhibition assay, K-562; details: Homo sapiens, K562, K-562
# How it was run: (§1)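 Human tumour cells were exposed continuously to the test sample, and growth and viability were quantified by sulforhodamine B staining. Means ± SD came from triplicate wells, and GI, TGI (cytostatic) and LC (cell killing) parameters were derived.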
# A-549 = assay: SRB colorimetric cell growth inhibition assay, A-549; details: Homo sapiens, A549, A-549
# How it was run: as §1
# SK-MEL-28 = assay: SRB colorimetric cell growth inhibition assay, SK-MEL-28; details: MEL-28
# How it was run: as §1
# HT-29 = assay: SRB colorimetric cell growth inhibition assay, HT-29
# How it was run: as §1
# LoVo = assay: SRB colorimetric cell growth inhibition assay, LoVo; details: Homo sapiens, LoVo
# How it was run: as §1
# LoVo-Dox = assay: SRB colorimetric cell growth inhibition assay, LoVo-Dox (MDR); details: Homo sapiens, LOVO-DOX
# How it was run: as §1
# DU-145 = assay: SRB colorimetric cell growth inhibition assay, DU-145
# How it was run: as §1
# LNCaP = assay: SRB colorimetric cell growth inhibition assay, LNCaP; details: Homo sapiens, LNCaP, LN-caP
# How it was run: as §1
# SK-BR-3 = assay: SRB colorimetric cell growth inhibition assay, SK-BR-3
# How it was run: as §1
# IGROV = assay: SRB colorimetric cell growth inhibition assay, IGROV; details: IGROV
# How it was run: as §1
# IGROV-ET = assay: SRB colorimetric cell growth inhibition assay, IGROV-ET (ET-743 resistant); details: IGROV-ET
# How it was run: as §1
# PANC-1 = assay: SRB colorimetric cell growth inhibition assay, PANC-1
# How it was run: as §1
# SKOV-3 = assay: SRB colorimetric cell growth inhibition assay, SKOV-3; details: Homo sapiens
# Description: A colorimetric type of assay, using sulforhodamine B (SRB) reaction has been adapted for a quantitative measurement of cell growth and viability (following the technique described by P. A. Skehan, et al., J. Natl. Cancer Inst. 1990, 82, 1107-1112).
# This form of assay employs 96 well cell culture microplates of 9 mm diameter (T. Mosmann et al., J. of Immunological Methods 1983, 65, 55-63; G. T. Faircloth et al., J. of Tissue and Culture Methods 1988, 11, 201-205).
# Most of the cell lines are obtained from American Type Culture Collection (ATCC) derived from different human cancer types.
# The values for mean +/− SD of data from triplicate wells are calculated. Some parameters for cellular responses can be calculated: GI=growth inhibition, TGI=total growth inhibition (cytostatic effect) and LC=cell killing (cytotoxic effect).
# [1] = SRB colorimetric cell growth inhibition assay, H-MEC-1; details: human; H-MEC-1; cell killing (cytotoxic effect); read-out: LC50 H-MEC-1
# How it was run: (§2)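 Sulforhodamine B colorimetric assay of cell growth and viability, mean ± SD of triplicate wells. Parameters derived: GI (growth inhibition), TGI (total growth inhibition, cytostatic) and LC (cell killing, cytotoxic).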
# H-MEC-1 = assay: as above; details: Homo sapiens, HMEC-1, H-MEC-1
# How it was run: as §2
structure (smiles),measurement,setting,value
COc1cc2ccn3c(c(-c4ccc(OC(=O)[C@@H](N)Cc5ccccc5)c(OC)c4)c4c5cc(OC)c(OC(=O)[C@@H](N)Cc6ccccc6)cc5oc(=O)c43)c2cc1OC [Compound 18],GI50,"K-562; GI=growth inhibition, read-out: GI50 K-562",0.558 µM
same,CC50,"K-562; cell killing (cytotoxic effect), read-out: LC50 K-562",8.64 µM
same,IC (TGI),"K-562; total growth inhibition (cytostatic effect), read-out: TGI K-562",1.51 µM
same,GI50,"A-549; GI=growth inhibition, read-out: GI50 A-549",1.61 µM
same,CC50,"A-549; cell killing (cytotoxic effect), read-out: LC50 A-549",9.99 µM
same,IC (TGI),"A-549; total growth inhibition (cytostatic effect), read-out: TGI A-549",4 µM
same,GI50,"SK-MEL-28; GI=growth inhibition, read-out: GI50 MEL-28",0.524 µM
same,CC50,"SK-MEL-28; cell killing (cytotoxic effect), read-out: LC50 MEL-28",4.43 µM
same,TGI MEL-28,SK-MEL-28; total growth inhibition (cytostatic effect),1.44E−06 Molar
same,GI50,"HT-29; HT-29, GI=growth inhibition, read-out: GI50 HT-29",0.819 µM
same,CC50,"HT-29; Homo sapiens, HT-29, HT-29, cell killing (cytotoxic effect), read-out: LC50 HT-29",12.3 µM
same,IC (TGI),"HT-29; Homo sapiens, HT-29, HT-29, total growth inhibition (cytostatic effect), read-out: TGI HT-29",4.54 µM
same,GI50,"LoVo; GI=growth inhibition, read-out: GI50 LOVO",0.664 µM
same,CC50,"LoVo; cell killing (cytotoxic effect), read-out: LC50 LOVO",12.3 µM
same,IC (TGI),"LoVo; total growth inhibition (cytostatic effect), read-out: TGI LOVO",2.37 µM
same,GI50,"LoVo-Dox; GI=growth inhibition, read-out: GI50 LOVO-DOX",1.08 µM
same,CC50,"LoVo-Dox; cell killing (cytotoxic effect), read-out: LC50 LOVO-DOX",12.1 µM
same,IC (TGI),"LoVo-Dox; total growth inhibition (cytostatic effect), read-out: TGI LOVO-DOX",3.67 µM
same,GI50,"DU-145; DU-145, GI=growth inhibition, read-out: GI50 DU-145",0.505 µM
same,TGI DU-145,"DU-145; DU-145, total growth inhibition (cytostatic effect)",1.41E−06 Molar
same,CC50,"DU-145; Homo sapiens, DU-145, DU-145, cell killing (cytotoxic effect), read-out: LC50 DU-145",7.04 µM
same,GI50,"LNCaP; GI=growth inhibition, read-out: GI50 LN-caP",0.359 µM
same,CC50,"LNCaP; cell killing (cytotoxic effect), read-out: LC50 LN-caP",4.27 µM
same,IC (TGI),"LNCaP; total growth inhibition (cytostatic effect), read-out: TGI LN-caP",1.27 µM
same,CC50,"SK-BR-3; Homo sapiens, SK-BR-3, SK-BR-3, cell killing (cytotoxic effect), read-out: LC50 SK-BR-3",10.5 µM
same,GI50,"SK-BR-3; SK-BR-3, GI=growth inhibition, read-out: GI50 SK-BR-3",0.458 µM
same,TGI SK-BR-3,"SK-BR-3; SK-BR-3, total growth inhibition (cytostatic effect)",2.14E−06 Molar
same,CC50,"IGROV; Homo sapiens, cell killing (cytotoxic effect), read-out: LC50 IGROV",7.91 µM
same,IC (TGI),"IGROV; Homo sapiens, total growth inhibition (cytostatic effect), read-out: TGI IGROV",3.21 µM
same,GI50,"IGROV; GI=growth inhibition, read-out: GI50 IGROV",1.31 µM
same,CC50,"IGROV-ET; Homo sapiens, cell killing (cytotoxic effect), read-out: LC50 IGROV-ET",12.3 µM
same,IC (TGI),"IGROV-ET; Homo sapiens, total growth inhibition (cytostatic effect), read-out: TGI IGROV-ET",5.14 µM
same,GI50,"IGROV-ET; GI=growth inhibition, read-out: GI50 IGROV-ET",2 µM
same,CC50,"PANC-1; Homo sapiens, PANC-1, PANC-1, cell killing (cytotoxic effect), read-out: LC50 PANC-1",12.3 µM
same,GI50,"PANC-1; PANC-1, GI=growth inhibition, read-out: GI50 PANC-1",0.992 µM
same,TGI PANC-1,"PANC-1; PANC-1, total growth inhibition (cytostatic effect)",3.70E−06 Molar
same,GI50,"SKOV-3; SK-OV-3, SKOV-3, GI=growth inhibition, read-out: GI50 SKOV-3",1.22 µM
same,LC50 (concentration causing 50% net cell killing),"SKOV-3; SK-OV-3, SKOV-3, cell killing (cytotoxic effect), read-out: LC50 SKOV-3",6.51 µM
same,IC (TGI),"SKOV-3; SK-OV-3, SKOV-3, total growth inhibition (cytostatic effect), read-out: TGI SKOV-3",2.82 µM
same,LC50 (concentration giving 50% net cell killing),[1],2.93 µM
same,GI50,"H-MEC-1; GI=growth inhibition, read-out: GI50 H-MEC-1",0.494 µM
same,IC (TGI),"H-MEC-1; total growth inhibition (cytostatic effect), read-out: TGI H-MEC-1",0.846 µM
